The target in one data set is HIV-1 protease (Human immunodeficiency virus type 1 group M subtype B, UniProt P03369). Description: biochemical.
The target in a further data set is T1, HIV-2 protease (Human immunodeficiency virus type 2 subtype A, UniProt P04584).
T1 construct: the coding region of the 99-amino acid protease; made in house; host or cells: Saccharomyces cerevisiae strain AB110, plasmid pHIV2PR115
The data set is described as follows: biochemical. The settings on record: 1M NaCl. On the procedure:
The decapeptide was synthesized by conventional solid-state methods. Reactions were carried out and fractionated by HPLC. Conversion of the decapeptide to the two pentapeptides was quantitated by integration of the peak areas and comparison to product standard curves.
Enzymatic Inhibition. […] Each data point was done in triplicate and initial enzyme rates were fit to the Michaelis-Menten equation using a nonlinear regression program ("Enzfitter" from Biosoft).

The mark [1] stands for this setting: HIV-1 Protease IC50 (μM) 1M NaCl.
Where [2] appears, read: read-out: HIV-1 Protease IC50 (μM) 1M NaCl.
[3] abbreviates: HIV-1 Protease IC50 (μM) 1M NaCl, 1M NaCl.

Molecules are shown by their SMILES. Like-named read-outs stand apart in the source and are kept apart here.

T1 sequence (P04584 514-612 limits assumed): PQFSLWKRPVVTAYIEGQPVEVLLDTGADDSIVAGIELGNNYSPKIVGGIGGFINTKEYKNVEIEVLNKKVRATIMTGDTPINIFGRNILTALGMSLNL
Method for in vitro: Cytotoxicity. The MTT assay was performed as follows:
The cells were seeded in 96-well plates and grown overnight to near 50% confluency. A serial dilution (1 to 500 μM) of each compound in culture media was prepared and 250 μL/well was added in duplicate. The cells were allowed to grow for various periods of time (6, 24, 48 hours) and any precipitation of compounds in the wells was noted. The assay was performed by removing 200 μL of the culture media and adding 25 μL of MTT solution (2 mg/mL in phosphate buffered saline (PBS)). This was incubated for 4 hours at 37° C. and live cells began to turn purple while the solution remained yellow. To quench the reaction and solubilize the reaction product, 160 μL of acidified isopropanol (4 mL 1N HCl for 96 mL alcohol) were added and the resulting mixture was mixed vigorously to dissolve purple crystals. Absorbance was determined at 550-570 nm on an ELISA plate reader within 0.5-2 hours. […] To obtain the LD50 values for each compound, the concentration at which the absorbance is haft of that for the untreated cells was determined.

In the case of `CSCC(O)(CCCN1CCC(O)(c2ccc(Cl)cc2)CC1)c1ccc(F)cc1` (stereo not shown) [UCSF39, 5-[4-(4-chlorophenyl)-4-hydroxypiperidinyl]-2-(4-fluorophenyl)pentan-2-ol-1-methylsulfide], on HIV-1 protease, the “HIV-1 Protease Therapeutic Index (LD50 /IC50)” value is reported as 1.2. The figures for the IC50 at HIV-1 protease (setting [1]) and against HIV-2 protease were 75 µM and 135 µM, respectively. In addition, the CC50 at 6 h in “in vitro” is 90 µM. The same compound returned a solubility in the data set “physchem” greater than 500 µM.

Regarding `OC1(c2ccc(Cl)cc2)CCN(CCCC2(c3ccc(F)cc3)OCCO2)CC1` [UCSF16, (1,2-ethyloxoacetal)-4-[4-(p-chlorophenyl)-4-hydroxypiperidinyl]-4'-fluorobutyrophenone], at HIV-1 protease, the “HIV-1 Protease Therapeutic Index (LD50 /IC50)” value was determined as 2. Moreover, the IC50 at HIV-1 protease (setting [2]) worked out at 75 µM; on HIV-2 protease (read-out: HIV-2 Protease IC50 (μM) 1M NaCl), 238 µM. In “in vitro”, this compound registered a CC50 at 6 h of 150 µM. Further, the solubility in “physchem” is greater than 250 µM.

In the case of `O=C(CCC[N+]1(CCc2ccccc2)CCC(O)(c2ccc(Cl)cc2)CC1)c1ccc(F)cc1` (stereo not shown) [UCSF15, 4-[4-(p-chlorophenyl)-4-hydroxy-[N-(2-phenyl)ethyl]piperidinyl]-4'-fluorobutyrophenone], on HIV-1 protease, the “HIV-1 Protease Therapeutic Index (LD50 /IC50)” value amounted to 0.3. In addition, the IC50 stood at 150 µM on HIV-1 protease (setting [1]) and 250 µM against HIV-2 protease. Further, the solubility in the data set “physchem” was greater than 250 µM.

In the case of `OC1(c2ccccc2)CCN(CCCC2(c3ccc(F)cc3)OCCO2)CC1` [UCSF28, (1,2-ethyloxoacetal)-4-(4-phenyl-4-hydroxypiperidinyl)-4'-fluorobutyrophenone], on HIV-1 protease, the “HIV-1 Protease Therapeutic Index (LD50 /IC50)” value was found to be 1.2. At HIV-1 protease (setting [1]), the 50% inhibitory concentration (IC50) was determined as 410 µM. This compound had a CC50 at 6 h in the data set “in vitro” greater than 500 µM. In addition, the solubility in the data set “physchem” is greater than 500 µM.

Consider `CC[C@H]1CSC(CCCN2CCC(O)(c3ccc(Cl)cc3)CC2)(c2ccc(F)cc2)O1` (stereo partly shown) [UCSF80], for which the values for the half-maximal inhibitory concentration (IC50) at HIV-1 protease (setting [1]) and against HIV-2 protease were 33 µM and 58 µM, respectively. The same compound came in with a CC50 at 6 h in the data set “in vitro” of 40 µM. Further, in the data set “physchem”, the solubility is greater than 250 µM.

As for `CC(CCc1ccccc1)N1CCC(O)(c2ccc(Cl)cc2)CC1` (stereo not shown) [UCSF73], the IC50 against HIV-1 protease (setting [1]) was 100 µM; against HIV-2 protease, 188 µM. The compound also yielded a CC50 at 6 h in “in vitro” of 360 µM. The compound also returned a solubility in “physchem” of less than 500 µM.

As for `OC1(c2ccc(Cl)cc2)CCN(CCCC(O)(c2ccccc2)c2cccc(-c3ccccc3)c2)CC1` (stereo not shown) [UCSF57, 4-(4-(p-chlorophenyl)-4-hydroxypiperidinyl)-1-phenyl-1-(3'-phenylphenyl)-butan-1-ol], the results for the half-maximal inhibitory concentration (IC50) at HIV-1 protease (setting [1]) and against HIV-2 protease were 10 µM and 14 µM, respectively. The compound also yielded a CC50 at 4 h in “in vitro” of 25 µM. The solubility in the data set “physchem” is less than 500 µM.

As to `CC[C@@H]1CSC(CCCN2CCC(O)(c3ccc(Cl)cc3)CC2)(c2ccc(F)cc2)O1` (stereo partly shown) [UCSF79], the IC50 on HIV-1 protease (setting [1]) was 30 µM; at HIV-2 protease, 68 µM. Moreover, the CC50 at 6 h in the data set “in vitro” is 35 µM. Besides, the solubility in “physchem” was greater than 250 µM.

Take `O=C(CCCC1(O)CCC(O)(c2ccc(Cl)cc2)CC1)c1ccccc1` (stereo not shown) [UCSF45]: the half-inhibitory concentration (IC50) on HIV-1 protease (setting [3]) was greater than 1000 µM.

On HIV-1 protease (setting [1]), `OCC1(c2ccccc2)CCN(CCCC2(c3ccc(F)cc3)OCCO2)CC1` [UCSF53] returned an IC50 greater than 2500 µM. Also, in the data set “in vitro”, the CC50 at 6 h stood at 500 µM. In “physchem”, this compound yielded a solubility of less than 50 µM.

`OC1(c2ccc(Cl)cc2)CCN(CCCN(Cc2ccccc2)Cc2ccc(-c3ccccc3)cc2)CC1` [UCSF63]: the IC50 on HIV-1 protease (setting [1]) stood at 18 µM; on HIV-2 protease it was 15 µM. The compound further gave a CC50 at 6 h in “in vitro” of 25 µM. The same compound had a solubility in the data set “physchem” greater than 500 µM.

As to `OC1(c2ccc(Cl)cc2)CCN(CCCC(O)(c2ccccc2)c2ccc(-c3ccccc3)cc2)CC1` (stereo not shown) [UCSF33, 4-[4-(p-chlorophenyl)-4-hydroxypiperidinyl)-1-phenyl-1-(p-phenylphenyl)-butan-1-ol], the “HIV-1 Protease Therapeutic Index (LD50 /IC50)” value on HIV-1 protease is 1.4. Besides, the half-maximal inhibitory concentration (IC50) at HIV-1 protease (setting [1]) and against HIV-2 protease was 7 µM throughout. For the same compound, in “in vitro”, the CC50 at 6 h came to 10 µM. Moreover, in “physchem”, the solubility is less than 50 µM.

`O=C(CCC[N+]1([O-])CCC(O)(c2ccc(Cl)cc2)CC1)c1cccc(-c2ccccc2)c1` (stereo not shown) [UCSF67]: the “HIV-1 Protease Therapeutic Index (LD50 /IC50)” value at HIV-1 protease was 0.3. Also, the IC50 against HIV-1 protease (setting [1]) came to 80 µM; against HIV-2 protease, 10 µM. In “in vitro”, this compound returned a CC50 at 6 h greater than 25 µM. In addition, the solubility in the data set “physchem” was greater than 25 µM.

In the case of `OC1(c2ccc(Cl)cc2)CCN(CCCC(O)(Cc2ccccc2)c2ccc(F)cc2)CC1` (stereo not shown) [UCSF25], the “HIV-1 Protease Therapeutic Index (LD50 /IC50)” value on HIV-1 protease came to 0.2. Also, the half-inhibitory concentration (IC50) came out at 87 µM on HIV-1 protease (setting [1]) and 75 µM against HIV-2 protease. The compound further returned a CC50 at 6 h in “in vitro” of 20 µM.

In the case of `OC1(c2ccc(Cl)cc2)CCN(CCCNCc2ccccc2)CC1` [UCSF55, 3-[4-(4-chlorophenyl)-4-hydroxypiperidinyl]-N-(benzyl)propylamine], the “HIV-1 Protease Therapeutic Index (LD50 /IC50)” value on HIV-1 protease is reported as less than 0.02. The IC50 on HIV-1 protease (setting [1]) was 2500 µM; at HIV-2 protease, greater than 2500 µM. In “in vitro”, this compound gave a CC50 at 4 h of 60 µM. The compound also returned a solubility in “physchem” greater than 500 µM.

Consider `ON=C(CCCN1CCC(O)(c2ccc(Cl)cc2)CC1)c1ccc(F)cc1` [UCSF4, 4-[4-(p-chlorophenyl)-4-hydroxypiperidinyl]-4'-fluorobutyrophenone oxime], for which, on HIV-1 protease, the “HIV-1 Protease Therapeutic Index (LD50 /IC50)” value is 0.7. Besides, the 50% inhibitory concentration (IC50) on HIV-1 protease (setting [1]) is 100 µM; against HIV-2 protease, 116 µM. This compound also registered a solubility in the data set “physchem” greater than 250 µM.

As to `C#CCC(CCN1CCC(O)(c2ccc(Cl)cc2)CC1)C(=O)c1ccc(F)cc1` (stereo not shown) [UCSF68], the 50% inhibitory concentration (IC50) was 105 µM against HIV-1 protease (setting [1]) and 48 µM against HIV-2 protease. For the same compound, the CC50 at 6 h in the data set “in vitro” stood at 100 µM. Further, the solubility in the data set “physchem” is less than 500 µM.

On to `NN=C(CCCN1CCC(O)(c2ccc(Cl)cc2)CC1)c1ccc(F)cc1` [UCSF7, 4-[4-(p-chlorophenyl)-4-hydroxypiperidinyl]-4'-fluorobutyrophenone hydrazone], for which the “HIV-1 Protease Therapeutic Index (LD50 /IC50)” value on HIV-1 protease is listed as 0.9. Further, the figures for the 50% inhibitory concentration (IC50) against HIV-1 protease (setting [1]) and at HIV-2 protease were 100 µM and 200 µM, respectively. Besides, in the data set “physchem”, the solubility was greater than 250 µM.

For `OC1(c2ccc(Cl)cc2)CCN(CCCC2(c3ccc(F)cc3)SCc3cccc(c3)CS2)CC1` [UCSF21, (1,3-benzenedimethanethioacetal)-4-[4-(p-chlorophenyl)-4-hydroxypiperidinyl]-4'-fluorobutyrophenone], the “HIV-1 Protease Therapeutic Index (LD50 /IC50)” value on HIV-1 protease is > 20(10). The IC50 was found to be 25 µM against HIV-1 protease (setting [1]) and 75 µM at HIV-2 protease. The CC50 at 6 h in “in vitro” was greater than 500 µM. The compound also came in with a solubility in “physchem” of less than 250 µM.

Take `O=C(CCCN1CC=C(c2ccc(Cl)cc2)CC1)c1ccc(F)cc1` [UCSF11, 4-[4-(p-chlorophenyl)]-N-[4-(4'-fluorobutyrophenone)]-1,2,5,6-tetrahydropyridine]: the IC50 worked out at 750 µM against HIV-1 protease (1M NaCl) and 310 µM against HIV-2 protease. Further, the “HIV-1 Protease Therapeutic Index (LD50 /IC50)” value at HIV-1 protease (LD50/IC50) is 0.3. In “in vitro”, this compound displayed a CC50 at 6 h of 250 µM. The solubility in “physchem” is less than 250 µM.

Regarding `O=C(CCCN1CCC(O)(c2ccc(Cl)cc2)C(O)C1)c1ccc(F)cc1` (stereo not shown) [UCSF20, 4-[4-(p-chlorophenyl)-3,4-dihydroxypiperidinyl)-4'-fluorobutyrophenone], at HIV-1 protease, the “HIV-1 Protease Therapeutic Index (LD50 /IC50)” value turned out to be 0.26. Further, half-maximal inhibition against HIV-1 protease (setting [1]) (IC50) was put at 675 µM. In addition, in “physchem”, the solubility was greater than 250 µM.

Regarding `O=C(CCCN1CCC(c2ccccc2)CC1)c1ccc(F)cc1` [UCSF19], the IC50 against HIV-1 protease (setting [3]) was 250 µM; against HIV-2 protease, 323 µM.

`Cc1ccc(C2(CCC(c3ccccc3)N3CCC(O)(c4ccc(Cl)cc4)CC3)SCCS2)cc1` (stereo not shown) [UCSF48]: the “inhibition of HIV-1 protease at the lower salt concentrations” value on HIV-1 protease is given as “Very little inhibition”. The “inhibition of HIV-1 protease compared with other compounds” value at HIV-1 protease is given as “slightly better inhibitor than USCF42 at 1M NaCl”. For the same compound, the IC50 on HIV-1 protease (setting [1]) came out at 7 µM; on HIV-2 protease, 10 µM.

`O=C(CCCN1CCC(O)(c2ccc(Cl)cc2)CC1)c1ccncc1` [UCSF35]: the “HIV-1 Protease Therapeutic Index (LD50 /IC50)” value on HIV-1 protease is greater than 0.8. The IC50 at HIV-1 protease (setting [2]) came to 650 µM. The compound also came in with a CC50 at 6 h in the data set “in vitro” greater than 500 µM. Also, in “physchem”, the solubility was greater than 500 µM.

For the compound `O=C(CCCN1CCC(O)(c2ccccc2)CC1)c1ccc2ccccc2n1` [UCSF27], the “HIV-1 Protease Therapeutic Index (LD50 /IC50)” value on HIV-1 protease is 2(1). At HIV-1 protease (setting [2]), the IC50 was 198 µM. In “in vitro”, this compound returned a CC50 at 6 h of 400 µM. The same compound had a solubility in the data set “physchem” of less than 200 µM.

Take `OC1(c2ccc(Cl)cc2)CCN(CCCC(O)(c2ccccc2)c2ccc(F)cc2)CC1` (stereo not shown) [UCSF24, 4-[4-(p-chlorophenyl)-4-hydroxypiperidinyl]-1-phenyl-1-(p-fluorophenyl)-butan-1-ol]: on HIV-1 protease, the “HIV-1 Protease Therapeutic Index (LD50 /IC50)” value was 0.4. The IC50 against HIV-1 protease (setting [1]) came to 62 µM. In the data set “in vitro”, this compound returned a CC50 at 6 h of 25 µM. Further, the solubility in “physchem” was greater than 200 µM.

Regarding `OC1(c2ccccc2)CCN(CCCC(O)(c2ccccc2)c2ccc3ccccc3n2)CC1` (stereo not drawn) [UCSF32, 4-(4-phenyl-4-hydroxypiperidinyl)-1-phenyl-1-[α-(2-azanaphthyl)]-butan-1-ol], the “HIV-1 Protease Therapeutic Index (LD50 /IC50)” value at HIV-1 protease worked out at 0.4. Moreover, the IC50 at HIV-1 protease (setting [1]) worked out at 60 µM; on HIV-2 protease it was 80 µM. The same compound came in with a CC50 at 6 h in “in vitro” of 25 µM.

With `O=C(CCC[n+]1ccc(-c2ccc(Cl)cc2)cc1)c1ccc(F)cc1` [UCSF17, 4-[4-(p-chlorophenyl)l-N-[4-(4'-fluorobutyrophenone)]pyridinium bromide], 1200 µM corresponded to half-maximal inhibition on HIV-1 protease (1M NaCl) (IC50). For the same compound, the “HIV-1 Protease Therapeutic Index (LD50 /IC50)” value on HIV-1 protease (LD50/IC50) is 0.4. The compound further returned a CC50 at 6 h in “in vitro” of 500 µM. This compound also returned a solubility in “physchem” greater than 250 µM.
